Data taken from the METLIN SMRT retention time set (Domingo-Almenara et al. 2019).

experiment: gradient 5% acetonitrile 3 min, to 50% in 2 min, to 85% in 15 min, held 3 min, 100 µL/min; details: column: Zorbax Extend-C18 2.1 x 50 mm; eluents: water / acetonitrile, 0.1% formic acid
How it was run: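 In both positive and negative ionization mode, a quadrupole time-of-flight mass spectrometer coupled to HPLC analyzed pure standards run in mixtures of ~100 molecules. The Zorbax Extend-C18 column (2.1 × 50 mm, 1.8 μm) was operated at 100 μL/min with water and acetonitrile, each containing 0.1% formic acid. The dead volume was 40 μL and the dwell volume 900 μL. Retention time came from adduct peaks that were computationally picked and individually inspected by hand.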

RP-LC retention time [s]	Compound
1200	COc1ccc(-c2csc(NC(=O)COc3ccc(Cl)c(Cl)c3)n2)cc1
849	CCN1c2ccc(C)cc2C(=O)NC12CCN(C(=O)c1ccc(C)cc1)CC2
594	COCCN1C(=O)[C@H]2CN(Cc3ccc(OC)cc3OC)C[C@H]2C1=O
946	CCc1ccccc1NC(=O)Cn1nc2c(Oc3cc(C)cc(C)c3)nccn2c1=O
1060	Cc1cccc(N2CCN([C@H]3CS(=O)(=O)C[C@@H]3S(=O)(=O)c3ccccc3)CC2)c1C
1220	Cc1c(Cl)cccc1S(=O)(=O)N1CCCC1c1nc(-c2ccc(F)cc2)no1 (stereo not drawn)
1250	Cc1ccc(-c2noc(-c3ccccc3S(=O)(=O)N3CCCCC3C)n2)cc1 (stereo not drawn)
697	CN1C(=O)c2cc(C(=O)NCc3ccccc3F)nn2CC1(C)C(=O)NCc1ccccc1 (stereo not drawn)
911	Cc1nc(C2(C)CCN(S(=O)(=O)c3ccccc3Cl)CC2)no1
1170	Cc1ccc(-c2coc(-c3ccc(NC(=O)c4ccco4)cc3)n2)c(C)c1
658	Cn1cc(C(=O)Nc2ccc(N3CCOCC3)cc2)c2cccnc21
824	Cc1ccc(CNC(=O)N2CCC[C@@H]2C(=O)NCc2csc(-c3ccccc3)n2)cc1
519	Cc1nc(C(C)C)nc2c1CCC(=O)N2Cc1cccnc1
706	O=C(Cc1ccc(F)cc1)NC1CCN(c2cc(-c3ccccc3)[nH]n2)C1 (stereo not drawn)
1140	CC1=NS(=O)(=O)N(Cc2ccccc2)C=C1C(=O)OCc1cccc(C)c1
964	Fc1ccc(N2CCN(Cc3nc(-c4ccccc4)no3)CC2)cc1
962	Cc1ccc(S(=O)(=O)N2CCCC(CCC(=O)N3CCCCC3)C2)cc1 (stereo not drawn)
776	Cc1ccn(-c2ccc(Nc3ccc(NC(=O)c4ccc(Br)o4)cc3)nn2)n1
725	Cc1noc(-c2nn(C)c3c2CN(C(=O)Nc2ccccc2Cl)CC3)n1
817	O=C(N1CCC(c2nc(C3CCOCC3)no2)CC1)C1(c2ccccc2)CC1
801	CCC(C)NC(=O)N1CC(Oc2cccc(-c3nc(C)no3)c2)C1 (stereo not drawn)
992	Fc1ccc(-c2nc(-c3cccc(-c4ccn[nH]4)c3)no2)c(F)c1

RP-LC retention time [s]	Compound
758	O=C(c1cnccn1)N1CCC(c2nc(-c3ccccc3)no2)C1 (stereo not drawn)
742	O=C(NCc1ccc(Cl)cc1)c1cccn1-c1cccnc1
1370	CCOC(=O)C1CCN(c2cc(-c3nc(-c4ccccc4)no3)c3ccccc3n2)CC1
683	CCOc1ccccc1C(=O)NC1CCN(C(=O)c2cn[nH]c2-c2ccc(F)cc2)CC1
648	CCn1ccc2cc(S(=O)(=O)N3CCCC(C(=O)NCCCN4CCOCC4)C3)ccc21 (stereo not drawn)
1270	COc1ccc(C2Cn3nnc(-c4nc(-c5cccc(C(F)(F)F)c5)no4)c3CO2)cc1 (stereo not drawn)
1020	O=C(Cn1cccc1-c1nnc(-c2ccccc2)o1)N1CCc2ccccc21
851	Cc1cccc(Cn2nc3n(CCC(=O)NC(C)C)c(=O)c4ccccc4n3c2=O)c1
655	CCCn1cnc2ccc(-c3noc(CNC(=O)c4ccccc4)n3)cc21
790	O=C(Nc1ccccc1F)C1CCN(S(=O)(=O)c2cc(C(=O)N3CCCC3)cs2)CC1
681	COc1ccccc1CNC(=O)Cn1cc(C(=O)N2CCCC2)c(=O)c2ccc(C)nc21
936	CCOC(=O)c1noc2nc(C)nc(Nc3ccc(C)cc3)c12
910	COc1ccccc1-c1noc(Cn2c(=O)n(-c3ccccc3C)c(=O)c3sccc32)n1
516	c1ccc([C@@H]2CN(Cc3ccncc3)C[C@H]2COc2cccnc2)nc1
1020	COc1ccc(N2CCN(Cc3nc(-c4ccc(N5CCCC(C)C5)nc4)no3)CC2)cc1 (stereo not drawn)
906	c1ccc(-c2ccc(C(c3ccccc3)n3ccnc3)cc2)cc1 (stereo not drawn)
757	COc1ccc(-c2nc3cccc(C)n3c2Nc2ccc(C)cc2)cc1
679	Cc1nc(C)c(C(=O)N2CCCn3cc(-c4ccccc4F)nc32)s1
1000	Cc1cccc(OCc2nc(CCN(C)C(=O)Nc3cc(F)ccc3F)no2)c1
781	COc1ccc(NC(=O)NC2CCN(c3ccc(F)cc3)C2=O)cc1F (stereo not drawn)
714	CCc1onc(C)c1C1CCCN1C(=O)c1ccc(OC)c(OC)c1 (stereo not drawn)
739	CC(C)c1noc(COC2CCN(C(=O)NCc3ccco3)CC2)n1

RP-LC retention time [s]	Compound
840	COc1ccc(-c2nnc(-c3ccccc3)o2)cc1S(=O)(=O)N(C)C
665	CCCNC(=O)C1CCN(c2ccc(SCC(=O)Nc3ccc(F)c(F)c3)nn2)CC1
799	CCOc1ccc(CC(=O)N2C[C@@H]3C[C@H](NC(=O)c4ccccc4)[C@H]2C3)cc1
718	O=C(c1cc(C2CC2)on1)N1CCCC1
761	CN1C(=O)c2cc(C(=O)NCCc3ccccc3)nn2CC1(C)C(=O)NC1CCCC1 (stereo not drawn)
666	CC(C)Cn1c(=O)c(C(=O)NCc2ccc(N3CCCCC3)cc2)nc2cccnc21
762	COc1ccc(NC(=O)C2c3ccccc3C(=O)N3CCc4ccccc4C23)cc1OC (stereo not drawn)
936	Cc1ccc(CNC(=O)C2(C)CCN(C(=O)Nc3cc(Cl)ccc3C)CC2)cc1
831	CN(C)S(=O)(=O)c1ccc(-c2nnc(C(=O)NCc3ccccc3)o2)cc1
752	CC(C)CNC(=O)c1ccc2c(c1)Sc1ncccc1C(=O)N2C1CC1
966	CCOC(=O)C1=C(CNc2ccc(C(F)(F)F)cc2)NC(=O)NC1c1ccc2c(c1)OCO2 (stereo not drawn)
792	O=C(Nc1nnc(-c2cc3ccccc3o2)o1)c1ccc([N+](=O)[O-])o1
832	CC1CCC2(CC1)NC(=O)N(CC(=O)NCCCc1ccccc1)C2=O (stereo not drawn)
779	O=C(c1ccc(OCC2CCCN2C(=O)c2ccc(F)c(F)c2)cc1)N1CCCC1 (stereo not drawn)
749	Cc1ccccc1C(=O)N1CCC2(CC1)NC(=O)c1cc(F)ccc1N2C
728	O=C(NCc1ccc(N2CCOCC2)cc1)C1CCCN(c2cnc3nccnc3c2)C1 (stereo not drawn)
924	CS(=O)(=O)N1CCC(C(=O)Nc2ccc(Cl)cc2)Oc2ccccc21 (stereo not drawn)
939	CCOCCCNC(=O)c1cc2sc(Cl)cc2n1C
707	NC1=NCC2c3ccccc3Cc3ccccc3N12 (stereo not drawn)
602	Cc1nc2cccnc2n1C1CCN(C(=O)c2cccc(Cl)c2)C1 (stereo not drawn)
1010	CCOc1ccc(S(=O)(=O)N2CCC(C(=O)Nc3ccc(OC)cc3OC)CC2)cc1C
1240	CCOc1ccc(NS(=O)(=O)c2cc(-c3nc(C(C)(C)C)cs3)cs2)cc1

RP-LC retention time [s]	Compound
933	O=[N+]([O-])c1ccc(-c2cn(-c3ccc(Cl)cc3)cn2)cc1
1250	CCCOc1nc2ccccc2nc1N1CCCC(C(=O)Nc2ccccc2)C1 (stereo not drawn)
714	Cc1nc(CNC(=O)C2CCN(C(=O)Nc3ccc(C)c(Cl)c3)CC2)cs1
714	N#Cc1ccc(S(=O)(=O)N2CCCOCCNC(=O)[C@@H]3CCC[C@@H]32)cc1
1120	CCn1nccc1C(=O)N1CC(Oc2ccc(-c3nc(-c4ccccc4)no3)cc2)C1
804	CCOc1cc(S(=O)(=O)Nc2cccc3cn[nH]c23)ccc1Br
842	O=C(C1=CN(c2ccccc2F)c2cc(Cl)ccc2S1(=O)=O)N1CCCC1
910	COc1ccc(C2CC(=O)N(c3ccc(F)c(F)c3)C(=O)C2)cc1
667	O=C(Cn1nc2c(N3CCCCCC3)nccn2c1=O)Nc1ccc2c(c1)OCO2
894	O=C(Cn1ccn2nc(-c3ccc(F)cc3)c(CO)c2c1=O)Nc1cccc(Br)c1
635	Cc1c(C(=O)N2CCN(C)CC2)cnn1-c1ccc(-c2nc(C3CC3)no2)cn1
1090	Cc1ccccc1N1CCN(S(=O)(=O)c2ccc(-c3nnc(C4CC4)o3)o2)CC1
865	COc1ccc(Cc2nn3c(CSc4ccccc4)nnc3s2)cc1OC
603	CS(=O)(=O)N1CCCC(C(=O)NC2CCCC2)CCNC(=O)CC1 (stereo not drawn)
1290	CCC(C)n1c(=O)c2ccccc2n(Cc2nc(-c3ccc(C(F)(F)F)cc3)no2)c1=O (stereo not drawn)
581	O=C(c1ccc(Cl)cc1)N(CCS(=O)(=O)N1CCNCC1)CC1CCCO1 (stereo not drawn)
810	Cc1ccc(C2=NC3(CCN(C(=O)c4cccs4)CC3)ON2)cc1
657	CCOc1ccc(S(=O)(=O)NCC2CCN(C(=O)c3cccn(C)c3=O)CC2)cc1C
942	COc1ccccc1-c1noc(C2CCCN2C(=O)Nc2ccc(F)c(Cl)c2)n1 (stereo not drawn)
726	O=C(CCn1cnc2cc(-c3noc(Cc4cccc(F)c4)n3)ccc21)N1CCCC1
890	Cc1noc(-c2cc(=O)n(CC(=O)Nc3ccc(F)c(F)c3)c3ccccc23)n1
1070	O=C(O)c1cc(-c2ccc(Cl)s2)nc2ccccc12
